BindingDB's records for doi:10.1016/0167-0115(94)90537-1 (Universit&Eacute, 1994)
Square brackets hold non-standard residues; d marks the D form. Peptide text beside a SMILES is read from it. ξ: configuration not given here. Ile(3ξ) = CCC(C)[C@H](N)C(=O)O

Biological target: T1, VIP peptides (Rattus norvegicus, UniProt P01283)
T1 sequence (P01283 whole entry): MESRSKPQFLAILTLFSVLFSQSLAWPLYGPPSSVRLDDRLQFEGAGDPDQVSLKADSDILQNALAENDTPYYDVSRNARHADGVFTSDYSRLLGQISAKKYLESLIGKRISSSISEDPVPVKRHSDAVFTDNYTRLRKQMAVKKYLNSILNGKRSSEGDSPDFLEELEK

SMILES | Ki [nM]
CC[C@H](C)[C@H](NC(=O)CNC(=O)[C@H](CCC(=O)O)NC(=O)[C@H](CO)NC(=O)[C@@H](N)Cc1cnc[nH]1)C(=O)N[C@@H](Cc1ccccc1)C(=O)N[C@H](C(=O)N[C@@H](CC(=O)O)C(=O)N[C@@H](CO)C(=O)N[C@@H](Cc1ccc(O)cc1)C(=O)N[C@@H](CO)C(=O)N[C@@H](CCCNC(=N)N)C(=O)N[C@@H](Cc1ccc(O)cc1)C(=O)N[C@@H](CCCNC(=N)N)C(=O)N[C@@H](CCCCN)C(=O)N[C@@H](CCC(N)=O)C(=O)N[C@@H](CCSC)C(=O)N[C@@H](C)C(=O)N[C@H](C(=O)N[C@@H](CCCCN)C(=O)N[C@@H](CCCCN)C(=O)N[C@@H](Cc1ccc(O)cc1)C(=O)N[C@@H](CC(C)C)C(=O)N[C@@H](C)C(=O)N[C@@H](C)C(=O)N[C@H](C(=O)N[C@@H](CC(C)C)C(N)=O)C(C)C)C(C)C)[C@@H](C)O [PACAP(1-27)] | 2
CCC(C)[C@H](NC(=O)CNC(=O)[C@@H](N)CC(=O)O)C(=O)N[C@@H](Cc1ccccc1)C(=O)N[C@H](C(=O)N[C@@H](CC(=O)O)C(=O)N[C@@H](CO)C(=O)N[C@@H](Cc1ccc(O)cc1)C(=O)N[C@@H](CO)C(=O)N[C@@H](CCCN=C(N)N)C(=O)N[C@@H](Cc1ccc(O)cc1)C(=O)N[C@@H](CCCN=C(N)N)C(=O)N[C@@H](CCCCN)C(=O)N[C@@H](CCC(N)=O)C(=O)N[C@@H](CCSC)C(=O)N[C@@H](C)C(=O)N[C@H](C(=O)N[C@@H](CCCCN)C(=O)N[C@@H](CCCCN)C(=O)N[C@@H](Cc1ccc(O)cc1)C(=O)N[C@@H](CC(C)C)C(=O)N[C@@H](C)C(=O)N[C@@H](C)C(=O)N[C@H](C(=O)N[C@@H](CC(C)C)C(N)=O)C(C)C)C(C)C)[C@@H](C)O (stereo partly drawn) [PACAP(3-27)] (H-DG[Ile(3ξ)]FTDSYSRYRKQMAVKKYLAAVL-NH2) | 2000
CC[C@H](C)[C@H](NC(=O)[C@H](C)NC(=O)[C@H](CC(=O)O)NC(=O)[C@H](CO)NC(=O)[C@@H](N)Cc1cnc[nH]1)C(=O)N[C@@H](Cc1ccccc1)C(=O)N[C@H](C(=O)N[C@@H](CCC(N)=O)C(=O)N[C@@H](CCC(N)=O)C(=O)N[C@@H](Cc1ccc(O)cc1)C(=O)N[C@@H](CO)C(=O)N[C@@H](CCCCN)C(=O)N[C@@H](CC(C)C)C(=O)N[C@@H](CC(C)C)C(=O)N[C@@H](C)C(=O)N[C@@H](CCCCN)C(=O)N[C@@H](CC(C)C)C(=O)N[C@@H](C)C(=O)N[C@@H](CC(C)C)C(=O)N[C@@H](CCC(N)=O)C(=O)N[C@@H](CCCCN)C(=O)N[C@@H](Cc1ccc(O)cc1)C(=O)N[C@@H](CC(C)C)C(=O)N[C@@H](C)C(=O)N[C@@H](CO)C(=O)N[C@H](C(=O)N[C@@H](CC(C)C)C(=O)NCC(=O)N[C@@H](CO)C(=O)N[C@@H](CCCNC(=N)N)C(=O)N[C@H](C(=O)N[C@@H](CO)C(=O)N1CCC[C@H]1C(=O)N1CCC[C@H]1C(=O)N1CCC[C@H]1C(N)=O)[C@@H](C)O)[C@@H](C)CC)[C@@H](C)O [CAS_89468-62-2] (H-HSDAIFTQQYSKLLAKLALQKYLASILGSRTSPPP-NH2) | 30
[C][C][C]([C])[C@H]([N]C(=O)[C][N]C(=O)[C@H]([C][C]C([O])=O)[N]C(=O)[C@@H]([N])[C][O])C(=O)[N][C@@H]([C]c1ccccc1)C(=O)[N][C@H](C(=O)[N][C@@H]([C]C([O])=O)C(=O)[N][C@@H]([C][O])C(=O)[N][C@@H]([C]c1ccc([O])cc1)C(=O)[N][C@@H]([C][O])C(=O)[N][C@@H]([C][C][C]N=C([N])[N])C(=O)[N][C@@H]([C]c1ccc([O])cc1)C(=O)[N][C@@H]([C][C][C]N=C([N])[N])C(=O)[N][C@@H]([C][C][C][C][N])C(=O)[N][C@@H]([C][C]C([N])=O)C(=O)[N][C@@H]([C][C]S[C])C(=O)[N][C@@H]([C])C(=O)[N][C@@H]([C]([C])[C])C(=O)[N][C@@H]([C][C][C][C][N])C(=O)[N][C@@H]([C][C][C][C][N])C(=O)[N][C@@H]([C]c1ccc([O])cc1)C(=O)[N][C@@H]([C][C]([C])[C])C(=O)[N][C@@H]([C])C(=O)[N][C@@H]([C])C(=O)[N][C@@H]([C]([C])[C])C(=O)[N][C@@H]([C][C]([C])[C])C([N])=O)[C@@H]([C])[O] [PACAP(2-27)] | 30
CC[C@H](C)[C@H](NC(=O)[C@H](CO)NC(=O)[C@H](CC(N)=O)NC(=O)[C@H](CC(C)C)NC(=O)[C@H](Cc1ccc(O)cc1)NC(=O)[C@H](CCCCN)NC(=O)[C@H](CCCCN)NC(=O)[C@@H](NC(=O)[C@H](C)NC(=O)[C@H](CCSC)NC(=O)[C@H](CCC(N)=O)NC(=O)[C@H](CCCCN)NC(=O)[C@H](CCCN=C(N)N)NC(=O)[C@H](CC(C)C)NC(=O)[C@H](CCCN=C(N)N)NC(=O)[C@@H](NC(=O)[C@H](Cc1ccc(O)cc1)NC(=O)[C@H](CC(N)=O)NC(=O)[C@H](CC(=O)O)NC(=O)[C@@H](NC(=O)[C@H](Cc1ccccc1)NC(=O)[C@@H](NC(=O)[C@H](C)NC(=O)[C@H](CC(=O)O)NC(=O)[C@H](CO)NC(=O)[C@H](N)Cc1cnc[nH]1)C(C)C)[C@@H](C)O)[C@@H](C)O)C(C)C)C(=O)N[C@@H](CC(C)C)C(=O)N[C@@H](CC(N)=O)C(N)=O [VIP [D-His1]] | 200

Continued, values first:

Ki [nM] | SMILES
800 | CCC(C)[C@H](NC(=O)CNC(=O)[C@@H](N)CC(=O)O)C(=O)N[C@@H](Cc1ccccc1)C(=O)N[C@H](C(=O)N[C@@H](CC(=O)O)C(=O)N[C@@H](CO)C(=O)N[C@@H](Cc1ccc(O)cc1)C(=O)N[C@@H](CO)C(=O)N[C@@H](CCCN=C(N)N)C(=O)N[C@@H](Cc1ccc(O)cc1)C(=O)N[C@@H](CCCN=C(N)N)C(=O)N[C@@H](CCCCN)C(=O)N[C@@H](CCC(N)=O)C(=O)N[C@@H](CCSC)C(=O)N[C@@H](C)C(=O)N[C@H](C(=O)N[C@@H](CCCCN)C(=O)N[C@@H](CCCCN)C(=O)N[C@@H](Cc1ccc(O)cc1)C(=O)N[C@@H](CC(C)C)C(=O)N[C@@H](C)C(=O)N[C@@H](C)C(=O)N[C@H](C(=O)N[C@@H](CC(C)C)C(=O)NCC(=O)N[C@@H](CCCCN)C(=O)N[C@@H](CCCN=C(N)N)C(=O)N[C@@H](Cc1ccc(O)cc1)C(=O)N[C@@H](CCCCN)C(=O)N[C@@H](CCC(N)=O)C(=O)N[C@@H](CCCN=C(N)N)C(=O)N[C@H](C(=O)N[C@@H](CCCCN)C(=O)N[C@@H](CC(N)=O)C(=O)N[C@@H](CCCCN)C(N)=O)C(C)C)C(C)C)C(C)C)[C@@H](C)O (stereo partly drawn) [PACAP(3-38)] (H-DG[Ile(3ξ)]FTDSYSRYRKQMAVKKYLAAVLGKRYKQRVKNK-NH2)
2 | CC[C@H](C)[C@H](NC(=O)CNC(=O)[C@H](CC(=O)O)NC(=O)[C@H](CO)NC(=O)[C@@H](N)Cc1cnc[nH]1)C(=O)N[C@@H](Cc1ccccc1)C(=O)N[C@H](C(=O)N[C@@H](CC(=O)O)C(=O)N[C@@H](CO)C(=O)N[C@@H](Cc1ccc(O)cc1)C(=O)N[C@@H](CO)C(=O)N[C@@H](CCCNC(=N)N)C(=O)N[C@@H](Cc1ccc(O)cc1)C(=O)N[C@@H](CCCNC(=N)N)C(=O)N[C@@H](CCCCN)C(=O)N[C@@H](CCC(N)=O)C(=O)N[C@@H](CCSC)C(=O)N[C@@H](C)C(=O)N[C@H](C(=O)N[C@@H](CCCCN)C(=O)N[C@@H](CCCCN)C(=O)N[C@@H](Cc1ccc(O)cc1)C(=O)N[C@@H](CC(C)C)C(=O)N[C@@H](C)C(=O)N[C@@H](C)C(=O)N[C@H](C(=O)N[C@@H](CC(C)C)C(=O)NCC(=O)N[C@@H](CCCCN)C(=O)N[C@@H](CCCNC(=N)N)C(=O)N[C@@H](Cc1ccc(O)cc1)C(=O)N[C@@H](CCCCN)C(=O)N[C@@H](CCC(N)=O)C(=O)N[C@@H](CCCNC(=N)N)C(=O)N[C@H](C(=O)N[C@@H](CCCCN)C(=O)N[C@@H](CC(N)=O)C(=O)N[C@@H](CCCCN)C(N)=O)C(C)C)C(C)C)C(C)C)[C@@H](C)O [PACAP]
800 | CCC(C)[C@H](NC(=O)CN)C(=O)N[C@@H](Cc1ccccc1)C(=O)N[C@H](C(=O)N[C@@H](CC(=O)O)C(=O)N[C@@H](CO)C(=O)N[C@@H](Cc1ccc(O)cc1)C(=O)N[C@@H](CO)C(=O)N[C@@H](CCCN=C(N)N)C(=O)N[C@@H](Cc1ccc(O)cc1)C(=O)N[C@@H](CCCN=C(N)N)C(=O)N[C@@H](CCCCN)C(=O)N[C@@H](CCC(N)=O)C(=O)N[C@@H](CCSC)C(=O)N[C@@H](C)C(=O)N[C@H](C(=O)N[C@@H](CCCCN)C(=O)N[C@@H](CCCCN)C(=O)N[C@@H](Cc1ccc(O)cc1)C(=O)N[C@@H](CC(C)C)C(=O)N[C@@H](C)C(=O)N[C@@H](C)C(=O)N[C@H](C(=O)N[C@@H](CC(C)C)C(N)=O)C(C)C)C(C)C)[C@@H](C)O (stereo partly drawn) [PACAP(4-27)] (H-G[Ile(3ξ)]FTDSYSRYRKQMAVKKYLAAVL-NH2)
